Measurements published in article PMC6272390, “Xanthones from the Leaves of Garcinia cowa Induce Cell Cycle Arrest, Apoptosis, and Autophagy in Cancer Cells” (Molecules, 2015).

Legend:
A549 = assay: CCK-8 cytotoxicity assay, A549; type: cell-based; settings: Homo sapiens, CCK-8, 72 h treatment
Method: (§1) The CCK-8 assay was used to determine cell viability. Test samples were dissolved in dimethyl sulfoxide (DMSO) to make stock solutions and further diluted in culture medium for assays. Human cancer cell lines (HeLa, PANC-1, and A549) were cultured in RPMI 1640, DMEM or DMEM/F12 (1:1) medium containing 10% fetal bovine serum. Cells were maintained at 37 °C in a humidified environment under 5% CO2. Cell proliferation assays were performed as previously described. Briefly, each cell line was seeded in a 96-well tissue culture plate at a predetermined density in 180 µL of complete medium, attached overnight and treated with test compound for 72 h. Then the medium was discarded and replaced with 10% CCK-8 in complete medium and the plates incubated for another 2 h. OD450 was measured with a SpectraMAX 190 spectrophotometer (MDS, Sunnyvale, CA, USA). Background absorbance was subtracted for all wells. Inhibition rate (IR) was determined. IR (%) = (ODDMSO − ODcompound)/ODDMSO × 100%.

PANC-1 = assay: CCK-8 cytotoxicity assay, PANC-1; type: cell-based; settings: Homo sapiens, CCK-8, 72 h treatment
Method: as §1

HeLa = assay: CCK-8 cytotoxicity assay, HeLa; type: cell-based; settings: Homo sapiens, CCK-8, 72 h treatment
Method: as §1

HeLa cells = assay: Flow cytometry analysis of apoptosis and cell cycle arrest (PI staining); type: cell-based, human; settings: 24 h, FACS
Method: Figure 3 Effects of 1, 5, 16, and 17 on cell cycle and apoptosis. HeLa cells were treated with indicated chemicals. After 24 h of treatment, the cells were harvested, fixed in 70% EtOH, and stained with PI. The cell cycle and apoptosis rate were detected by FACS. Etoposide is used as positive control; (A) Cell cycle attribution of HeLa cells under different concentration treatment; (B) Apoptotic rates were acquired from Sub-G1 fraction from A.
Hypodiploid DNA and cell cycle arrest were evaluated as described previously. Briefly, after treatment of HeLa cancer cells with vehicle (0.1% DMSO) or test compound at the indicated concentrations and times, the cells were harvested by trypsinization and fixed with 70% (v/v) alcohol at 4 °C for 30 min. After washing with PBS, RNase (10 µg/mL) was added and incubated for 15 min at 37 °C to eliminate RNA interference. The cells were then treated with propidium iodide (PI) for another 30 min. The cells were washed, and the DNA content determined using FACSCalibur.

[1] = CCK-8 cytotoxicity assay, immortalized HL7702 normal liver cells; type: cell-based; settings: immortalized HL-7702 normal liver cells; CCK-8, 72 h treatment; normal human liver cells, selectivity
HeLa, PANC-1, and A549 = assay: Cytotoxicity against cell line panel (summary statements); type: cell-based; settings: Homo sapiens; summary of Table 2; cell line not specified; read-out: Inhibition on cell viability, IC50
Method: as §1

[2] = tested on: HeLa cells (PARP, caspase-3, LC3B, p62); assay: Western blot of apoptosis and autophagy related proteins; type: cell-based, human; settings: 24 h
Method: Figure 4 Effects of 1, 5, 16, and 17 on apoptosis and autophagy related proteins. Western blots of p62, LC3B, PARP, Caspase 3, and GAPDH of HeLa cells after 24 h treatment with 1, 5, 16, and 17. Etoposide was used as positive control.
Cell lysate was prepared in RIPA buffer and quantified by the bicinchoninic acid (BCA) method (Pierce, Rockford, IL, USA). Thirty micrograms of protein per sample was loaded onto a 4%~12% NuPAGE® Novex SDS gel. Protein was transferred using an iBlot® dry blotting device onto nitrocellulose membranes. After blocking nonspecific binding with TBS/Tween20 (0.1%) (TBS/T) containing 5% non-fat milk for 1 h at room temperature, the membrane was incubated in LC3B (Sigma, L7543), SQSTM1/p62 (MBL, PM045), PARP (CST #9542P, Cell Signaling Technology, Shanghai, China), or caspase-3 (CST #9662P, Cell Signaling Technology) (1:1000 in TBS/T containing 3% bovine serum albumin (BSA) in all cases) with gentle shaking at 4 °C overnight. Membranes were washed three times with TBS/T to remove unbound antibody and then incubated with secondary antibody (HRP-conjugated goat anti-mouse IgG or goat anti-rabbit IgG (1:5000) for 1 h at room temperature. Protein bands were visualized with an enhanced chemiluminescence kit (ECL, Pierce).

[3] = tested on: HeLa cells stably expressing GFP-LC3; assay: GFP-LC3 puncta imaging; type: cell-based, human; settings: HeLa-GFP-LC3 cells, 10, 20 µM, 24 h, confocal images
Method: Figure 5 Xanthone V1 (17) induces GFP-LC3 puncta formation in HeLa cells. HeLa cells stably expressing GFP-LC3 were seeded in a 96-well dish and treated with 10, 20 µM 17 for 24 h. (A) The number of GFP-LC3 puncta in each samples were calculated by Columbus software. The number was averaged of cells from three wells; (B) The images of GFP-LC3 puncta after 10, 20 µM treatment Xanthone V1 were acquired by an Opera (GFP ex and em) with a 40×-H2O objective. Left Panel: the original GFP-LC3 puncta; Right panel: the spots were auto-analyzed by Columbus software.
HeLa cells stably expressing GFP-LC3 were generated as previously described. Briefly, HeLa cells were transfected with pEGFP-LC3 plasmid using Lipofectamine 2000 (11668-019, Invitrogen, Carlsbad, CA, USA). One day after transfection, the cells were treated with 800 μg/mL G418 for 7 days. Surviving cells (termed HeLa-GFP-LC3 below) were continually cultured with 800 μg/mL G418. HeLa-GFP-LC3 cells were seeded in a 96-well plate overnight (clear bottom, black, Perkin-Elmer, Waltham, MA, USA). The cells were then treated with test compounds in triplicate. After 48 h, the cells were fixed with 4% paraformaldehyde and washed three times with PBS. […] The data were analyzed using Columbus 2.3 software (Perkin-Elmer). To quantify GFP-LC3 spots, the following procedures were performed: 1. […]

Row | Structure (SMILES) | IC50 (A549) | IC50 (PANC-1) | IC50 (HeLa) | Cell cycle arrest phase (HeLa cells) | IC50 at 72 h [1] | IC50 (HeLa, PANC-1, and A549) | Conversion of LC3-I to LC3-II [2] | PARP cleavage [2] | p62 level [2] | GFP-LC3 puncta formation [3] | Induction of apoptosis (Sub-G1 fraction) (HeLa cells)
1 | CC(C)=CCc1c(O)c(O)c2oc3c(CC=C(C)C)c(O)ccc3c(=O)c2c1O [Compound 1, 1,3,4,6-tetrahydroxy-2,5-di(3-methylbut-2-enyl)-xanthone] | 12.6 ± 4.3 µM | 14.8 ± 8.68 µM | 8.09 ± 0.78 µM | at the G2/M phase | 11 ± 4.36 µM | < 10 µM | – | – | – | – | –
2 | COc1cc([C@@H]2c3cc4c(cc3[C@@H](O[C@@H]3O[C@@H]5CO[C@@H](C)O[C@H]5[C@H](O)[C@H]3O)[C@H]3COC(=O)[C@H]23)OCO4)cc(OC)c1O [Etoposide, reference compound] | 1.31 ± 0.09 µM | 22.8 ± 1.93 µM | 2.91 ± 0.16 µM | – | 1.42 ± 0.13 µM | – | – | – | – | – | –
3 | CC(C)=CCc1c2c(c(O)c3c(=O)c4ccc(O)c(O)c4oc13)C=CC(C)(C)O2 [Compound 17, xanthone V1] | 11.8 ± 6.29 µM | 6.56 ± 2.55 µM | 4.71 ± 0.52 µM | at the G1 phase | 9.5 ± 3.74 µM | < 10 µM | increased the conversion of LC3-I to LC3-II | activated PARP cleavage | p62 reduction | an increase in GFP-LC3 puncta was observed | induced apoptosis
4 | CC1(C)C=Cc2c(cc3oc4c(O)c(O)ccc4c(=O)c3c2O)O1 [Compound 16, jacareubin] | 6.9 ± 2.23 µM | 10.1 ± 7.91 µM | 1.09 ± 0.67 µM | at the G2/M phase | 5.5 ± 1.79 µM | < 10 µM | – | activated PARP cleavage | – | – | induced apoptosis
5 | C=C(C)C(O)C[C@H](C[C@@]12C[C@@H](CC=C(C)C)C(C)(C)[C@@](CC=C(C)C)(C(=O)C(C(=O)c3ccc(O)c(O)c3)=C1O)C2=O)C(=C)C (stereo partly shown) [Compound 8, garcimultiflorone E] | 7.57 ± 0.57 µM | 17.7 ± 1.56 µM | 17.6 ± 1.45 µM | – | 7.34 ± 0.65 µM | < 10 µM | – | – | – | – | –
6 | CC(C)=CCc1c2c(c3oc4c(O)c(O)ccc4c(=O)c3c1O)C=CC(C)(C)O2 [Compound 5, 1,5,6-trihydroxy-2-prenyl-6′,6′-dimethyl-2H-pyrano(2′,3′:3,4)xanthone] | 8.19 ± 0.99 µM | 9.32 ± 4.58 µM | 7.06 ± 0.71 µM | cell cycle arrest at the S phase in a dose-dependent fashion | 10.5 ± 4.12 µM | < 10 µM | – | activated PARP cleavage | – | – | –
7 | C=C(C)C(CC=C(C)C)C[C@@]12C[C@@H](CC=C(C)C)C(C)(C)[C@@](CC=C(C)C)(C1=O)c1oc3cc(O)c(O)cc3c(=O)c1C2=O (stereo partly shown) [Compound 15, symphonone H] | 6.27 ± 0.71 µM | 11.2 ± 4.89 µM | 9.83 ± 0.61 µM | – | 3.96 ± 2.38 µM | < 10 µM | – | – | – | – | –
